Measurements as given in patent publication US20240002391A1, “4-ALKOXYPYRROLO[2,1-F][1,2,4]TRIAZINES AND PREPARATION AND USES THEREOF” (BioSplice Therapeutics, Inc., priority 2022, published 2024).

target: recombinant DYRK1A kinase (Homo sapiens (Human), UniProt Q13627); test: DYRK1A kinase assay (Ser/Thr 18 peptide Z-lyte FRET); assay type: biochemical; conditions: DYRK1A kinase activity, Z-lyte Ser/Thr 18 peptide, 15 μM ATP; method text calls the value IC50; read-out: EC50 (the source's name)
Outline: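 Z-lyte FRET: recombinant DYRK1A 0.25 μg/mL, ATP 15 μM, Ser/Thr 18 peptide 4 μM, with compound (11-point 1:3, 10 μM top) 1 h at room temperature, then development reagent 1 h. Coumarin/fluorescein emission ratio converted to % phosphorylation; IC50 by non-linear regression, duplicates.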

| Structure (SMILES) | IC50 |
| --- | --- |
| COc1nc(NC2CCN(C3COC3)CC2)nn2ccc(-c3ccc4nnn(CC(F)F)c4c3)c12 [Compound 750, 5-(1-(2,2-Difluoroethyl)-1H-benzo[d][1,2,3]triazol-6-yl)-4-methoxy-N-(1-(oxetan-3-yl)piperidin-4-yl)pyrrolo[2,1-f][1,2,4]triazin-2-amine] | 0.3 nM |
| COc1nc(N[C@H]2CCN(C)C[C@H]2F)nn2ccc(-c3ccc4nnn(CC(F)F)c4c3)c12 [Compound 754, 5-(1-(2,2-Difluoroethyl)-1H-benzo[d][1,2,3]triazol-6-yl)-N-((3R,4S)-3-fluoro-1-methylpiperidin-4-yl)-4-methoxypyrrolo[2,1-f][1,2,4]triazin-2-amine] | 1.7 nM |
| CCN1CC[C@H](Nc2nc(OC)c3c(-c4ccc5nnn(CC(F)F)c5c4)ccn3n2)[C@H](F)C1 [Compound 755, 5-(1-(2,2-Difluoroethyl)-1H-benzo[d][1,2,3]triazol-6-yl)-N-((3R,4S)-1-ethyl-3-fluoropiperidin-4-yl)-4-methoxypyrrolo[2,1-f][1,2,4]triazin-2-amine] | 2.3 nM |
| COc1nc(N[C@H]2CCN(CCO)C[C@H]2F)nn2ccc(-c3ccc4nnn(CC(F)F)c4c3)c12 [Compound 756, 2-((3R,4S)-4-((5-(1-(2,2-Difluoroethyl)-1H-benzo[d][1,2,3]triazol-6-yl)-4-methoxypyrrolo[2,1-f][1,2,4]triazin-2-yl)amino)-3-fluoropiperidin-1-yl)ethan-1-ol] | 1.4 nM |
| COc1nc(N[C@H]2CCN(CC(C)(C)C#N)C[C@H]2F)nn2ccc(-c3ccc4nnn(CC(F)F)c4c3)c12 [Compound 757, 3-((3R,4S)-4-((5-(1-(2,2-Difluoroethyl)-1H-benzo[d][1,2,3]triazol-6-yl)-4-methoxypyrrolo[2,1-f][1,2,4]triazin-2-yl)amino)-3-fluoropiperidin-1-yl)-2,2-dimethylpropanenitrile] | 36.7 nM |
| COc1nc(N[C@H]2CCN(CC(C)(C)O)C[C@H]2F)nn2ccc(-c3ccc4nnn(CC(F)F)c4c3)c12 [Compound 758, 1-((3R,4S)-4-((5-(1-(2,2-Difluoroethyl)-1H-benzo[d][1,2,3]triazol-6-yl)-4-methoxypyrrolo[2,1-f][1,2,4]triazin-2-yl)amino)-3-fluoropiperidin-1-yl)-2-methylpropan-2-ol] | 1.1 nM |
| COc1nc(N[C@@H]2CCN(C3COC3)C[C@@H]2F)nn2ccc(-c3ccc4nnn(CC(F)F)c4c3)c12 [Compound 761, 5-(1-(2,2-Difluoroethyl)-1H-benzo[d][1,2,3]triazol-6-yl)-N-((3S,4R)-3-fluoro-1-(oxetan-3-yl)piperidin-4-yl)-4-methoxypyrrolo[2,1-f][1,2,4]triazin-2-amine] | 1.7 nM |

The next lines start with the values.

| IC50 | Structure (SMILES) |
| --- | --- |
| 1.3 nM | COc1nc(N[C@H]2CCN(C3COC3)C[C@H]2F)nn2ccc(-c3ccc4nnn(CC(F)F)c4c3)c12 [Compound 762, 5-(1-(2,2-Difluoroethyl)-1H-benzo[d][1,2,3]triazol-6-yl)-N-((3R,4S)-3-fluoro-1-(oxetan-3-yl)piperidin-4-yl)-4-methoxypyrrolo[2,1-f][1,2,4]triazin-2-amine] |
| 0.4 nM | COc1nc(N[C@H]2CCN(C3(C)COC3)C[C@H]2F)nn2ccc(-c3ccc4nnn(CC(F)F)c4c3)c12 [Compound 764, 5-(1-(2,2-difluoroethyl)-1H-benzo[d][1,2,3]triazol-6-yl)-N-((3R,4S)-3-fluoro-1-(3-methyloxetan-3-yl)piperidin-4-yl)-4-methoxypyrrolo[2,1-f][1,2,4]triazin-2-amine] |
| 2.9 nM | COc1nc(N[C@H]2CCN(C3(C#N)COC3)C[C@H]2F)nn2ccc(-c3ccc4nnn(CC(F)F)c4c3)c12 [Compound 769, 3-((3R,4S)-4-((5-(1-(2,2-Difluoroethyl)-1H-benzo[d][1,2,3]triazol-6-yl)-4-methoxypyrrolo[2,1-f][1,2,4]triazin-2-yl)amino)-3-fluoropiperidin-1-yl)oxetane-3-carbonitrile] |
